# Data published in patent US9732065B2, “Cyclic aminomethyl pyrimidine derivative” (Sumitomo Dainippon Pharma Co., Ltd., priority 2013, dated 2017).
# Tests used:
# Assay type in all cases: cell-based
# [1] = molecular target: T1, human adrenergic α2A receptor (Homo sapiens, UniProt P08913); assay: Agonistic/antagonistic activity in G protein dependent pathway (aequorin intracellular calcium luminescence), α2A; settings: for Maximal activity on each receptor (%): α2A: 10 μM adrenaline = 100%; for inhibition at 0.1 µM / inhibition at 1 µM: against 10 μM endogenous ligand, read-out: Inhibitory activity on each receptor (%): α2A
# T1 construct: expressed in transfected cells; host or cells: CHO-K1 or HEK293 cells
# T1 sequence (P08913 1-465): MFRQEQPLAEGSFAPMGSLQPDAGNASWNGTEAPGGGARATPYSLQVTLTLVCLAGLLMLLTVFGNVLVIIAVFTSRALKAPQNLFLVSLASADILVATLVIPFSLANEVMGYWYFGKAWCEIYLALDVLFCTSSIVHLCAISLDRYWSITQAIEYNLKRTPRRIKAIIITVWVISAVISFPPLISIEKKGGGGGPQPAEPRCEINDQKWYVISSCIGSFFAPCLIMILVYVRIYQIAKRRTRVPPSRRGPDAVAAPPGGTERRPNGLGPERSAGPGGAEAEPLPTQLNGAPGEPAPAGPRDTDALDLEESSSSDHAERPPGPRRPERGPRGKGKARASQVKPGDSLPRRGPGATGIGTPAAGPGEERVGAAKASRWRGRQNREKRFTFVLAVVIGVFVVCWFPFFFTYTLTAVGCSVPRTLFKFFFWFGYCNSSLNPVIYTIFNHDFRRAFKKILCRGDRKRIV
# Protocol: (§1) Plasmids encoding each receptor, aequorin and Gα16 were prepared, and the plasmids were transfected into CHO cells (Chinese Hamster Ovary cells) or HEK293 cells (Human Embryonic Kidney 293 cells) to prepare expressing cell lines.
# (§2) The agonistic or antagonistic activity of the present compound in the G protein dependent pathway was evaluated on the basis of intracellular calcium levels as follows. CHO-K1 or HEK293 cell lines transfected with D2, D4, α1A, or α2A receptor genes were seeded in a 384-well plate, and incubated in a CO2 incubator at 37° C. for 24 hours, and then a solution of the present compound in DMSO was added into cells preloaded with coelenterazine to measure the change in luminescent signals with a FDSS (Hamamatsu Photonics K.K.). […] The agonistic activity of the present compound was calculated according to the measured luminescent signals, as the maximal activity (Emax) of the present compound. On the other hand, the antagonistic activity of the present compound was calculated according to the luminescent signals in wells with 10 μM of an endogenous ligand alone defined as 100%, as the inhibitory activity of the present compound to an endogenous ligand. EC50 value was calculated as the concentration of the present compound required to achieve a 50% response, and IC50 was calculated as the concentration of the present compound required to achieve a 50% inhibition of the Emax of an endogenous ligand.
# [2] = molecular target: T2, Human dopamine D4 receptor (Homo sapiens, UniProt P21917); assay: Agonistic/antagonistic activity in G protein dependent pathway (aequorin intracellular calcium luminescence), D4; set-up: expressed in transfected cells; host or cells: CHO-K1 or HEK293 cells; settings: for inhibition at 0.1 µM / inhibition at 1 µM: against 10 μM endogenous ligand, read-out: Inhibitory activity on each receptor (%): D4; for Emax at 0.1 µM / Emax at 1 µM: read-out: Maximal activity on each receptor (%): D4
# T2 sequence (P21917 1-419): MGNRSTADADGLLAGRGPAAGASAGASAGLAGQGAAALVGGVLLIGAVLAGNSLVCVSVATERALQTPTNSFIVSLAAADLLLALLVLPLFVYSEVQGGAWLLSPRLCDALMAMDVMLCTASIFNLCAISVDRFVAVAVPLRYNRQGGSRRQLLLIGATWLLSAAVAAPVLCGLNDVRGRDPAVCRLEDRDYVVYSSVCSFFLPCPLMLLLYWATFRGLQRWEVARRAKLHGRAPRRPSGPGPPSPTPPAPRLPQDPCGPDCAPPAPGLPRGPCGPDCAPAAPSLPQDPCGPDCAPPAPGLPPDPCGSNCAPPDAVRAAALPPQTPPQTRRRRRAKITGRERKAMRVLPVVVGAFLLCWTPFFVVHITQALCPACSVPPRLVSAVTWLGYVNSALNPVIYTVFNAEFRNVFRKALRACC
# Protocol: as §1, §2
# [3] = molecular target: T3, human adrenergic α1A receptor (Homo sapiens, UniProt P35348); assay: Agonistic/antagonistic activity in G protein dependent pathway (aequorin intracellular calcium luminescence), α1A; settings: for Maximal activity on each receptor (%): α1A: 10 μM adrenaline = 100%; for inhibition at 0.1 µM / inhibition at 1 µM: against 10 μM endogenous ligand, read-out: Inhibitory activity on each receptor (%): α1A
# T3 construct: expressed in transfected cells; host or cells: CHO-K1 or HEK293 cells
# T3 sequence (P35348 1-466): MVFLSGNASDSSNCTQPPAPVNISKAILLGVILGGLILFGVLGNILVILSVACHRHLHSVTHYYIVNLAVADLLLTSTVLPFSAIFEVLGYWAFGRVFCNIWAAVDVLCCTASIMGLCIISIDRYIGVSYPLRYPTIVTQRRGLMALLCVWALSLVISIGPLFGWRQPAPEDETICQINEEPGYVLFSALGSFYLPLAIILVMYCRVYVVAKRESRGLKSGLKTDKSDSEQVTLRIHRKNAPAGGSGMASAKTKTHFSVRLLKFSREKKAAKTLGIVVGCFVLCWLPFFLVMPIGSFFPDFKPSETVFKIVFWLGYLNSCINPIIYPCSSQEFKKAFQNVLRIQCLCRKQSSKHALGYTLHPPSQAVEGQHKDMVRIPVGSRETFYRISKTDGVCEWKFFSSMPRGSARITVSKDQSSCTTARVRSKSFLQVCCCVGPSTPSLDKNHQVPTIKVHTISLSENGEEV
# Protocol: as §1, §2
# [4] = molecular target: T4, Human dopamine D2 receptor (Homo sapiens, UniProt P14416); assay: Agonistic/antagonistic activity in G protein dependent pathway (aequorin intracellular calcium luminescence), D2; settings: for Maximal activity on each receptor (%): D2: 10 μM dopamine = 100%; for inhibition at 0.1 µM / inhibition at 1 µM: against 10 μM endogenous ligand, read-out: Inhibitory activity on each receptor (%): D2
# T4 construct: expressed in transfected cells; host or cells: CHO-K1 or HEK293 cells
# Protocol: as §1, §2
# [5] = molecular target: T2, Human dopamine D4 receptor; assay: G protein independent pathway: β-arrestin recruit ability (PathHunter β-galactosidase); set-up: expressed in transfected cells; settings: β-arrestin recruitment, 90 minutes; 10 μM dopamine = 100%
# Protocol: The activation of the G protein independent pathway was evaluated on the basis of the recruit ability of β-arrestin as follows. Cell lines transfected with D4 receptor genes were seeded in a 384-well plate, and incubated in a CO2 incubator at 37° C. for 24 hours, a solution of the present compound in DMSO was added into the cells, and then the cells were left at 37° C. for 90 minutes. Buffer containing β-galactosidase reaction substance (PathHunter Cell Assay Buffer, DiscoverRx) was added thereto, and luminescent signals in the wells were measured with a FDSS (Hamamatsu Photonics K.K.). […] The maximal activity (Emax) of the present compound was calculated according to the measured luminescent signals. EC50 value was calculated as the concentration of the present compound required to achieve a 50 response.
# T4 sequence (P14416 whole entry): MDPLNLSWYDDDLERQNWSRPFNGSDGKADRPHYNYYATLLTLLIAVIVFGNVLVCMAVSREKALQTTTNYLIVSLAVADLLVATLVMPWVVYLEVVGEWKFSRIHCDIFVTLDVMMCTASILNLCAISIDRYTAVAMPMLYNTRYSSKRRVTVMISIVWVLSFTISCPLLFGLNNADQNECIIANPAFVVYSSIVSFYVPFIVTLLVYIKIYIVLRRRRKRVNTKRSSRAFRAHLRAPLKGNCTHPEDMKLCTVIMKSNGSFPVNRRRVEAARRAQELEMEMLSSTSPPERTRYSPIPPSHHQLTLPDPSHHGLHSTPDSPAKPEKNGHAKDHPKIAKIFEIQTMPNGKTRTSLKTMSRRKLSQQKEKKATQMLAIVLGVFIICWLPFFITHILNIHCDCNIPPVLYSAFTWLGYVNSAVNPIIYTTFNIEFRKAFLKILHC
Maximal activity on each receptor (%): α2A ([1]; 0.1 μM) [%],inhibition at 0.1 µM ([1]; 0.1 μM) [%],Maximal activity on each receptor (%): α2A ([1]; 1 μM) [%],inhibition at 1 µM ([1]; 1 μM) [%],inhibition at 0.1 µM [2] [%],inhibition at 1 µM [2] [%],Emax at 0.1 µM [2] [%],Emax at 1 µM [2] [%],Maximal activity on each receptor (%): α1A ([3]; 0.1 μM) [%],inhibition at 0.1 µM ([3]; 0.1 μM) [%],Maximal activity on each receptor (%): α1A ([3]; 1 μM) [%],inhibition at 1 µM ([3]; 1 μM) [%],Maximal activity on each receptor (%): D2 ([4]; 0.1 μM) [%],inhibition at 0.1 µM ([4]; 0.1 μM) [%],Maximal activity on each receptor (%): D2 ([4]; 1 μM) [%],inhibition at 1 µM ([4]; 1 μM) [%],Maximal activity on D4 receptor (%) [5] [%],SMILES
−0.17,-7,−0.04,-1.7,78,90,59,74,2.1,2.1,−0.1,-1.7,0.19,-1.7,1.1,9.9,11,"Cc1ncc(CN2CCC(c3ccccn3)CC2)c(N)n1 [Example 5, 2-Methyl-5-[4-(pyridin-2-yl)piperidin-1-ylmethyl]pyrimidin-4-amine]"
−0.1,0.91,−0.12,7.8,76,98,28,51,0.4,-34,0.85,-5.4,0.29,-5.3,1.7,1.2,21,"Cc1ncc(CN2CCC(c3cncc(F)c3)CC2)cn1 [Example 33, 5-[4-(5-Fluoropyridin-3-yl)piperidin-1-ylmethyl]-2-methylpyrimidine]"
−0.17,7.9,−0.27,0.24,64,77,18,40,0.31,-22,0.44,-14,5.4,14,18,47,9,Nc1ncc(CN2CCC(c3cccnc3)CC2)cn1 [Example 37]
